Laboratory results published in patent US11345710B2, “Imidazo[1,2-b]pyrimido[4,5-d]pyridazin-5(6H)-ones and the use thereof” (IMPACT THERAPEUTICS (SHANGHAI), INC, priority 2017, dated 2022).
Like-named read-outs stand apart in the source and are kept apart here.

What was measured:
NCI-H1299 cells = test: MTT based cell viability assay on NCI-H1299 cells; conditions: Homo sapiens, 72 h; NCI-H1299 cells, 3 d, MTT; read-out: IC50, growth inhibition on NCI-H1299 cells
In short: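 NCI-H1299 cells (1000/well) were plated overnight, then given a seven-point serial compound dilution plus DMSO control for 3 d at 37 °C, 5% CO2. Viability was read by MTT (0.5 mg/mL, 4 h, DMSO-solubilised) at 552/630/690 nm. IC50 came from a sigmoidal fit of survival versus concentration.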

LoVo cells = test: MTT based cell viability assay on LoVo cells; conditions: Homo sapiens, 72 h; LoVo cells, 3 d, MTT; read-out: IC50, growth inhibition on LoVo cells
[1] = system: patients with advanced solid tumors; conditions: cited from earlier work
Wee1 kinase (h) = Wee1 kinase (h) (Homo sapiens, UniProt P30291); test: Wee1 kinase (h) detection method, [γ-33P]-ATP filter assay; format: biochemical; conditions: 10 μM ATP, 40 minutes at room temperature
Chain of Wee1 kinase (h) (P30291 whole entry): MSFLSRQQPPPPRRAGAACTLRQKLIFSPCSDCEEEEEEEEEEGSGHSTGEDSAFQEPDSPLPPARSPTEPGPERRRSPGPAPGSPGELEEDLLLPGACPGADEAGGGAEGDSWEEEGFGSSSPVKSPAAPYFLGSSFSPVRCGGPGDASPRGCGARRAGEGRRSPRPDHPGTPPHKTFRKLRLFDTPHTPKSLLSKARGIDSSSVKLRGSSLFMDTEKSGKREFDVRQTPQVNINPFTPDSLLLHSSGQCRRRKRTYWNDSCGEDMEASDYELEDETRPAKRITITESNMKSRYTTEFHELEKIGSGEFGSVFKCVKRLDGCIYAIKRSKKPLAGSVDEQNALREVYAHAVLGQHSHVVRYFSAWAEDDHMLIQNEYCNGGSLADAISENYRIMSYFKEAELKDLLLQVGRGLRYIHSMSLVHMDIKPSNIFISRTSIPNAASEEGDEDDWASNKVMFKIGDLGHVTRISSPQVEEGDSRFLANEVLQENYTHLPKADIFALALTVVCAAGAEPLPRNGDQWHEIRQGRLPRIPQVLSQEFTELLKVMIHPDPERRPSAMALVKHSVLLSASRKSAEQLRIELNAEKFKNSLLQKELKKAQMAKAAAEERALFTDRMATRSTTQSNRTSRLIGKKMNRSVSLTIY
In short: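 Radiometric filter-binding assay with human Wee1 in 20 mM Tris/HCl pH 8.5, 0.2 mM EDTA, 500 μM peptide substrate, 10 mM Mg acetate, 10 μM [γ-33P]-ATP; compounds at final 1, 0.1 or 0.01 μM. Reaction 40 min at room temperature, stopped with 0.5% phosphoric acid, spotted on P30 filtermat, scintillation counted, duplicates.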

[2] = of 176 evaluable patients, alone or in combination with chemotherapy

SMILES	IC50 (NCI-H1299 cells) [µM]	IC50 (LoVo cells) [µM]	Inh. (%) of Wee1 kinase (Wee1 kinase (h); C 0.01 μm) [%]	Inh. (%) of Wee1 kinase (Wee1 kinase (h); C 1 μm) [%]	Inh. (%) of Wee1 kinase (Wee1 kinase (h); C 0.1 μm) [%]	response rate ([1]; TP53 wild-type patients (n=33)) [%]	safety and tolerability ([1]; alone or in combination with chemotherapy, at a certain dose)	partial response [1, 2] [%]	stable disease as the best response [1, 2] [%]	response rate ([1]; patients with TP53 mutation (n=19)) [%]
C=CCn1c(=O)c2cnc(Nc3ccc(N4CCN(C)CC4)cc3)nc2n1-c1cccc(C(C)(C)O)n1 [AZD1775]	0.117	0.154	28	–	–	12	safe and tolerable	10	53	21
CN(C)C1CCN(c2ccc(Nc3ncc4c(=O)n(-c5c(Cl)cccc5Br)n5ccnc5c4n3)cc2Cl)CC1 [Example 48, 6-(2-bromo-6-chlorophenyl)-2-((3-chloro-4-(4-(dimethylamino)piperidin-1-yl)phenyl)amino)imidazo[1,2-b]pyrimido[4,5-d]pyridazin-5(6H)-one]	0.281	0.227	23	93	–	–	–	–	–	–
Cc1cccc(F)c1-n1c(=O)c2cnc(Nc3ccc(N4CCN(C)CC4)c(Cl)c3)nc2c2nccn21 [Example 51, 6-(2-fluoro-6-methylphenyl)-2-((3-chloro-4-(4-methylpiperazin-1-yl)phenyl)amino)imidazo[1,2-b]pyrimido[4,5-d]pyridazin-5(6H)-one]	1.22	0.998	–	88	–	–	–	–	–	–
Cc1cc(Nc2ncc3c(=O)n(-c4c(C)cccc4F)n4ccnc4c3n2)cc(Cl)c1N1CCN(C)CC1 [Example 52, 6-(2-fluoro-6-methylphenyl)-2-((3-chloro-5-methyl-4-(4-methylpiperazin-1-yl)phenyl)amino)imidazo[1,2-b]pyrimido[4,5-d]pyridazin-5(6H)-one]	0.809	0.756	–	78	–	–	–	–	–	–
Cc1cc(Nc2ncc3c(=O)n(-c4c(C)cccc4Cl)n4ccnc4c3n2)cc(F)c1N1CCN(C)CC1 [Example 54, 6-(2-chloro-6-methylphenyl)-2-((3-fluoro-5-methyl-4-(4-methylpiperazin-1-yl)phenyl)amino)imidazo[1,2-b]pyrimido[4,5-d]pyridazin-5(6H)-one]	0.419	0.637	–	91	–	–	–	–	–	–
Cc1cnc2c3nc(Nc4ccc(N5CCN(C)CC5)c(Cl)c4)ncc3c(=O)n(-c3c(Cl)cccc3Cl)n12 [Example 56, 6-(2,6-dichlorophenyl)-2-((3-chloro-4-(4-methylpiperazin-1-yl)phenyl)amino)-8-methylimidazo[1,2-b]pyrimido[4,5-d]pyridazin-5(6H)-one]	0.54	0.434	–	95	–	–	–	–	–	–
Cc1cn2c(n1)c1nc(Nc3ccc(N4CCN(C)CC4)c(Cl)c3)ncc1c(=O)n2-c1c(Cl)cccc1Cl [Example 57, 6-(2,6-dichlorophenyl)-2-((3-chloro-4-(4-methylpiperazin-1-yl)phenyl)amino)-9-methylimidazo[1,2-b]pyrimido[4,5-d]pyridazin-5(6H)-one]	0.173	0.269	12	93	–	–	–	–	–	–
Cc1cn2c(n1)c1nc(Nc3ccc(N4CCC(N(C)C)CC4)c(C)c3)ncc1c(=O)n2-c1c(Cl)cccc1Cl [Example 58, 6-(2,6-dichlorophenyl)-2-((3-methyl-4-(4-(dimethylamino)piperidin-1-yl)phenyl)amino)-9-methylimidazo[1,2-b]pyrimido[4,5-d]pyridazin-5(6H)-one]	0.151	0.242	9	–	–	–	–	–	–	–
Cc1cn2c(n1)c1nc(Nc3cc(C)c(N4CCC(N(C)C)CC4)c(F)c3)ncc1c(=O)n2-c1c(Cl)cccc1Cl [Example 59, 6-(2,6-dichlorophenyl)-2-((3-fluoro-5-methyl-4-(4-(dimethylamino)piperidin-1-yl)phenyl)amino)-9-methylimidazo[1,2-b]pyrimido[4,5-d]pyridazin-5(6H)-one]	0.22	0.285	7	–	–	–	–	–	–	–
CCc1cn2c(n1)c1nc(Nc3ccc(N4CCC(N(C)C)CC4)c(C)c3)ncc1c(=O)n2-c1c(Cl)cccc1Cl [Example 61, 6-(2,6-dichlorophenyl)-2-((3-methyl-4-(4-(dimethylamino)piperidin-1-yl)phenyl)amino)-9-ethylimidazo[1,2-b]pyrimido[4,5-d]pyridazin-5(6H)-one]	0.126	0.352	12	–	–	–	–	–	–	–

Continued, in another order:

IC50 (NCI-H1299 cells) [µM]	IC50 (LoVo cells) [µM]	Inh. (%) of Wee1 kinase (Wee1 kinase (h); C 0.01 μm) [%]	Inh. (%) of Wee1 kinase (Wee1 kinase (h); C 1 μm) [%]	Inh. (%) of Wee1 kinase (Wee1 kinase (h); C 0.1 μm) [%]	SMILES	response rate ([1]; TP53 wild-type patients (n=33)) [%]	safety and tolerability ([1]; alone or in combination with chemotherapy, at a certain dose)	partial response [1, 2] [%]	stable disease as the best response [1, 2] [%]	response rate ([1]; patients with TP53 mutation (n=19)) [%]
0.337	0.272	–	91	–	Cc1cc(Nc2ncc3c(=O)n(-c4c(Cl)cccc4Br)n4ccnc4c3n2)ccc1N1CCC(N(C)C)CC1 [Example 49, 6-(2-bromo-6-chlorophenyl)-2-((3-methyl-4-(4-(dimethylamino)piperidin-1-yl)phenyl)amino)imidazo[1,2-b]pyrimido[4,5-d]pyridazin-5(6H)-one]	–	–	–	–	–
0.501	0.324	–	94	–	Cc1cc(Nc2ncc3c(=O)n(-c4c(Cl)cccc4Br)n4ccnc4c3n2)cc(F)c1N1CCC(N(C)C)CC1 [Example 50, 6-(2-bromo-6-chlorophenyl)-2-((3-fluoro-5-methyl-4-(4-(dimethylamino)piperidin-1-yl)phenyl)amino)imidazo[1,2-b]pyrimido[4,5-d]pyridazin-5(6H)-one]	–	–	–	–	–
0.809	0.642	12	94	69	Cc1cccc(Cl)c1-n1c(=O)c2cnc(Nc3ccc(N4CCN(C)CC4)c(Cl)c3)nc2c2nccn21 [Example 53, 6-(2-chloro-6-methylphenyl)-2-((3-chloro-4-(4-methylpiperazin-1-yl)phenyl)amino)imidazo[1,2-b]pyrimido[4,5-d]pyridazin-5(6H)-one]	–	–	–	–	–
0.663	0.56	0	89	46	Cc1cc(Nc2ncc3c(=O)n(-c4c(C)cccc4Cl)n4ccnc4c3n2)cc(Cl)c1N1CCN(C)CC1 [Example 55, 6-(2-chloro-6-methylphenyl)-2-((3-chloro-5-methyl-4-(4-methylpiperazin-1-yl)phenyl)amino)imidazo[1,2-b]pyrimido[4,5-d]pyridazin-5(6H)-one]	–	–	–	–	–
0.197	0.62	7	–	–	Cc1cc(Nc2ncc3c(=O)n(-c4c(Cl)cccc4Cl)n4cc(C(C)C)nc4c3n2)ccc1N1CCC(N(C)C)CC1 [Example 62, 6-(2,6-dichlorophenyl)-2-((3-methyl-4-(4-(dimethylamino)piperidin-1-yl)phenyl)amino)-9-isopropylimidazo[1,2-b]pyrimido[4,5-d]pyridazin-5(6H)-one]	–	–	–	–	–
